Here are results for five compounds from patent publication US11744819B2, “Antibiotic cannabinoid-terpene formulations” (priority 2019, dated 2023).

SMILES strings stand for the structures. Values after ≈ are worked out from the molar mass of the structure shown. Values joined by “and” are separate entries in the source; they are usually repeats but may differ in a detail not shown here. Equal values may be shown once. Read-outs that look alike come from different tables or passages of the source. Where only a bound is given, the exact number is not on record here.

Assay [1] has as its system E. faecium 3303. Kind of assay: microbe, parasite or virus in culture. The class given is cell-based, Enterococcus faecium. Conditions: for MIC Alone / MIC In combination / Max. fold change in MIC: E. faecium 3303; for MIC Alone: compound alone in checkerboard; for Max. fold change in MIC: decrease; for activities of the terpene with CBC, CBO, or CBG: terpene-cannabinoid combinations. An excerpt: In therapeutic applications, synergy between active ingredients occurs when an observed combined therapeutic effect is greater than the sum of therapeutic effects of individual active ingredients, or a new therapeutic effect is produced that the active ingredients could not produce alone. […] In this context, the enhancement of therapeutic effect may take the form of increased efficacy or potency and/or decreased adverse effects. The synergistic effect may be mediated in whole or in part by the pharmacokinetics and/or pharmacodynamics of the active ingredients in a subject, so that the amount and proportion of the ingredients in the formulation may be synergistic in vivo. This in vivo synergy may be effected with a formulation that includes the active ingredients in amounts and proportions that are also synergistic in in vitro assays of efficacy. As used herein, the term “synergistically effective amounts” accordingly refers to amounts that are synergistic in vivo and/or in vitro. A numeric quantification of synergy is often expressed as a fractional inhibitory concentration index (FICI), which represents the sum of the fractional inhibitory concentrations (FICs) of each drug tested, where the FIC is determined for each drug by dividing the minimum inhibitory concentration (MIC, the lowest concentration of the drug which prevents visible growth of the bacterium in a standard in vitro assay-standard colorometric assay based on resazurin) of each drug when used in combination by the MIC of each drug when used alone. In very general terms, a FICI lower or higher than 1 indicates positively correlated activity (at least additive or potentiation) or an absence of positive interactions, respectively. More definitively, synergy of two compounds may be conservatively defined as a FICI of ::::0.5 (see Odds, 2003; with additivity or potentiation corresponding to a FICI of >0.5 to ::::0.75; no interaction (indifference) corresponding to a FICI of >1 to ::::4; and antagonism corresponding to a FICI of >>4). Synergy of three compounds has been defined as a FICI of ::::1.0. (Berenbaum, 1978; Yu et al., 1980). To estimate the optimal concentrations in triple combinations, the optimal concentrations of trans-caryophyllene and cannabinoid were utilized in combination with a series of daptomycin dilutions.
(§1) Pre-cultures of bacteria growing in their corresponding liquid media (defined below) were diluted to an 00600 of 0.0025 and 100 μl was added to 100 μl of medium containing serial 2-fold dilutions of cannabinoid (cannabinoid stocks, in methanol or acetonitrile for acidic forms, were diluted in growth medium) in 96-well plates. Plates were then incubated for 20-24 h at 37° C., and growth was recorded as 00600 in a Thermo Scientific™ Varioskan™ Flash Multimode Reader.
Method for Tables 4-7. Interaction of Cannabinoids CBC, CBD and CBG with Terpenes and Daptomycin:
(§2) FICI values was determined in a 96 well checkerboard format using the MIC assay for cannabinoids (compound A), terpenes (compound B), and daptomycin (compound C) alone and in combinations. Terpene stocks were prepared in DMSO and diluted in the growth medium. The fractional inhibitory concentration for each compound was calculated as follows: FICA=(MIC of compound A in the presence of compound B)/(MIC of compound A alone). Similarly, the FICs for compounds Band C were calculated. The FICI was calculated as FICA plus FICs plus FICc.

Assay [2] concerns E. faecium VRE 55A6. The assay is described as follows: microbe, parasite or virus in culture. The class given is cell-based, Enterococcus faecium. Conditions: E. faecium VRE 55A6.
From the text: In therapeutic applications, synergy between active ingredients occurs when an observed combined therapeutic effect is greater than the sum of therapeutic effects of individual active ingredients, or a new therapeutic effect is produced that the active ingredients could not produce alone. […] In this context, the enhancement of therapeutic effect may take the form of increased efficacy or potency and/or decreased adverse effects. The synergistic effect may be mediated in whole or in part by the pharmacokinetics and/or pharmacodynamics of the active ingredients in a subject, so that the amount and proportion of the ingredients in the formulation may be synergistic in vivo. This in vivo synergy may be effected with a formulation that includes the active ingredients in amounts and proportions that are also synergistic in in vitro assays of efficacy. As used herein, the term “synergistically effective amounts” accordingly refers to amounts that are synergistic in vivo and/or in vitro. A numeric quantification of synergy is often expressed as a fractional inhibitory concentration index (FICI), which represents the sum of the fractional inhibitory concentrations (FICs) of each drug tested, where the FIC is determined for each drug by dividing the minimum inhibitory concentration (MIC, the lowest concentration of the drug which prevents visible growth of the bacterium in a standard in vitro assay-standard colorometric assay based on resazurin) of each drug when used in combination by the MIC of each drug when used alone. In very general terms, a FICI lower or higher than 1 indicates positively correlated activity (at least additive or potentiation) or an absence of positive interactions, respectively. More definitively, synergy of two compounds may be conservatively defined as a FICI of ::::0.5 (see Odds, 2003; with additivity or potentiation corresponding to a FICI of >0.5 to ::::0.75; no interaction (indifference) corresponding to a FICI of >1 to ::::4; and antagonism corresponding to a FICI of >>4). […] (Berenbaum, 1978; Yu et al., 1980). To estimate the optimal concentrations in triple combinations, the optimal concentrations of trans-caryophyllene and cannabinoid were utilized in combination with a series of daptomycin dilutions.
as §1, §2

For assay [3], the system named is Staphylococcus aureus MRSA. The assay is described as follows: microbe, parasite or virus in culture. The class given is cell-based.
Assay [4] has as its system Streptococcus pyogenes ATCC 51878. The assay is described as follows: MIC determination. The class given is cell-based. Conditions: Streptococcus pyogenes, ATCC51878.
The subject of assay [5] is Enterococcus faecalis. The assay is described as follows: MIC determination. The class given is cell-based.
Assay [6] has as its system Staphylococcus epidermidis ATCC 14990. The assay is described as follows: MIC determination. The class given is cell-based. Conditions: Staphylococcus epidermidis, ATCC14990.
For assay [7], the system named is Staphylococcus epidermidis ATCC 12228. The assay is described as follows: MIC determination. The class given is cell-based. Conditions: Staphylococcus epidermidis, ATCC12228.
Assay [8] concerns Mycobacterium abscessus ATCC 19977. The assay is described as follows: MIC determination (resazurin). The class given is cell-based. On the technique in general: The colour change of resazurin is a common sign of viable cells or microbes.
For assay [9], the system named is Mycobacterium tuberculosis H37Rv. The assay is described as follows: MIC determination (PrestoBlue). The class given is cell-based.
Assay [10] has as its system Enterococcus faecium 33D3.
Assay [11] concerns E. faecium clinical isolate 69C6 (vancomycin resistant). To be noted: clinical enterococcal strain 69C6, vancomycin resistant.
Assay [12] deals with E. faecium clinical isolate 58C9 (vancomycin and daptomycin resistant). To be noted: clinical enterococcal strain 58C9, vancomycin and daptomycin resistant.
In assay [13] the test system is E. faecium clinical isolate 55A6 (vancomycin and daptomycin resistant). To be noted: clinical enterococcal strain 55A6, vancomycin and daptomycin resistant.
Assay [14] deals with Enterococcus faecium 33D3. Kind of assay: microbe, parasite or virus in culture.
Assay [15] concerns E. faecium clinical isolate 69C6 (vancomycin resistant). Kind of assay: microbe, parasite or virus in culture. Conditions: Enterococcus faecium.
Assay [16] deals with E. faecium clinical isolate 58C9 (vancomycin and daptomycin resistant). The assay is described as follows: microbe, parasite or virus in culture. To be noted: Enterococcus faecium.
The test system of assay [17] is E. faecium clinical isolate 55A6 (vancomycin and daptomycin resistant). The assay is described as follows: microbe, parasite or virus in culture. To be noted: Enterococcus faecium.
Setting [18] is: triple, with daptomycin and CBC.
Where [19] appears, read: triple, with daptomycin and CBD.
Setting [20] is: triple, with daptomycin and CBG.
The mark [21] stands for this setting: Mycobacteroides abscessus, ATCC19977.
[22] abbreviates: Mycobacterium tuberculosis, H37RV, Media 7H9, read-out: MIC.
Where [23] appears, read: Mycobacterium tuberculosis, H37RV, Media PB, read-out: MIC.
Where [24] appears, read: 33D3, Enterococcus faecium 33D3 (Table 1).
[25] abbreviates: 33D3, clinical enterococcal strain 3303.

Take `C=C1CC/C=C(\C)CC[C@@H]2[C@@H]1CC2(C)C` (relative stereo) [Trans-caryophyllene, trans-caryophyllene]: the “MIC Alone” value in assay [1] was >16 µg/mL and 16 µg/mL; in assay [1] (listed as Tram-caryophyllene), 32 µg/mL. For the same compound, the “MIC In combination” value in [1] (pairwise, with CBC) came out at 0.25 µg/mL; in assay [1] (pairwise, with CBD) it was 2 µg/mL; in assay [1] (pairwise, with CBG), 4 µg/mL; in [1] (pairwise, with daptomycin) it was 4 µg/mL; in assay [1] (setting [18]), 2 µg/mL; in [1] (setting [19]) it was 2 µg/mL. The “MIC In combination” value in assay [1] (setting [20]) was 1 µg/mL; in assay [2] (pairwise, with CBC), 1 µg/mL; in [2] (pairwise, with CBD) it was 8 µg/mL; in [2] (pairwise, with CBG) it was over 32 µg/mL; in assay [2] (pairwise, with daptomycin) it was 2 µg/mL; in [2] (setting [18]) it was 2 µg/mL. In addition, the “MIC In combination” value in assay [2] (setting [19]) and in assay [2] (setting [20]) was 2 µg/mL throughout. The “Max. fold change in MIC” value in assay [1] (pairwise, with CBC) was 64 l fold; in assay [1] (pairwise, with CBG), 8″′ fold; in [1] (pairwise, with daptomycin) it was >4 l fold and >4″′ fold; in assay [1] (setting [18]), 8 l fold; in assay [1] (setting [19]), 8 fold; in [1] (setting [20]) it was 16 fold. In addition, the “Max. fold change in MIC” value in [2] (pairwise, with CBC) is over 32 fold; in [2] (pairwise, with CBD) it was over 4 fold; in assay [2] (pairwise, with CBG) it was “none”; in assay [2] (pairwise, with daptomycin), over 8 fold; in assay [2] (setting [18]) it was over 32 fold; in [2] (setting [19]) it was over 32 fold. In addition, the “Max. fold change in MIC” value in assay [2] (setting [20]) is reported as over 32 fold. Also, the “activities of the terpene with CBC, CBO, or CBG” value in assay [1] is given as “synergistic activities”.
`CCCCCc1cc2c(c(O)c1C(=O)O)C=CC(C)(CCC=C(C)C)O2` (stereo not shown) [CBCA, cannabichromic acid]: the MIC in [3] was 4 µg/mL (≈ 11.2 µM); in assay [4], 0.5 to 1 µg/mL; in [5], 4 µg/mL (≈ 11.2 µM); in [6], 2 µg/mL (≈ 5.58 µM); in assay [7] it was 2 µg/mL (≈ 5.58 µM); in assay [8] (Mycobacterium abscessus ATCC 19977), 4 µg/mL (≈ 11.2 µM). Moreover, the MIC in [9] (Media 7H9) is 2 µg/mL (≈ 5.58 µM); in assay [9] (Media PB), 4 µg/mL (≈ 11.2 µM); in assay [10] (Enterococcus faecium 33D3 (Table 1)), 4 µg/mL (≈ 11.2 µM); in [10] (clinical enterococcal strain 3303) it was 4 µg/mL (≈ 11.2 µM); in [11], 4 µg/mL (≈ 11.2 µM); in assay [12], 4 µg/mL (≈ 11.2 µM). The compound also had an MIC in [13] of 2 µg/mL (≈ 5.58 µM).
In the case of `C=C(C)[C@@H]1CCC(C)=C[C@H]1c1c(O)cc(CCCCC)c(C(=O)O)c1O` [CBDA, cannabidiolic acid], the MIC was 16 µg/mL (≈ 44.6 µM) in assay [3]; 8 µg/mL (≈ 22.3 µM) in [4]; 16 µg/mL (≈ 44.6 µM) in assay [5]; 4 µg/mL (≈ 11.2 µM) in assay [6]; 4 µg/mL (≈ 11.2 µM) in assay [7]; 32 µg/mL (≈ 89.3 µM) in [8] (setting [21]). Moreover, the MIC is 2 µg/mL (≈ 5.58 µM) in [9] (setting [22]); 4 µg/mL (≈ 11.2 µM) in [9] (setting [23]); 16 µg/mL (≈ 44.6 µM) in [14] (setting [24]); 16 µg/mL (≈ 44.6 µM) in assay [14] (setting [25]); 16 µg/mL (≈ 44.6 µM) in assay [15]; 16 µg/mL (≈ 44.6 µM) in [16]. Further, the MIC in assay [17] came out at 16 µg/mL (≈ 44.6 µM).
Turning to `CCCCCc1cc(O)c(C/C=C(\C)CCC=C(C)C)c(O)c1C(=O)O` [CBGA, cannabigerolic acid], the MIC in assay [3] is 1 µg/mL (≈ 2.77 µM); in [4], 2 µg/mL (≈ 5.55 µM); in [5], 8 µg/mL (≈ 22.2 µM); in assay [6], 2 µg/mL (≈ 5.55 µM); in assay [7], 2 µg/mL (≈ 5.55 µM); in assay [8] (setting [21]), 16 µg/mL (≈ 44.4 µM). Also, the MIC in assay [9] (setting [22]) was found to be 4 µg/mL (≈ 11.1 µM); in [9] (setting [23]), 2 µg/mL (≈ 5.55 µM); in [14] (setting [24]), 16 µg/mL (≈ 44.4 µM); in [14] (setting [25]), 16 µg/mL (≈ 44.4 µM); in assay [15], 8 µg/mL (≈ 22.2 µM); in assay [16], 16 µg/mL (≈ 44.4 µM). Besides, in assay [17], the MIC is 8 µg/mL (≈ 22.2 µM).
Take `C/C1=C\CC/C(C)=C/CC(C)(C)/C=C/C1` [a-humulene]: the “activities of the terpene with CBC, CBO, or CBG” value in assay [1] is reported as “synergistic activities”.
